Experiment [1] has as its target T1, Small ubiquitin-related modifier 2 (Homo sapiens, UniProt P61956). Description: SUMO2 binding disruption by SUMO1 hits – biochemical, FRET, human SUMO2, uHTS hits, selectivity assay for SUMO1 interaction inhibitor project, dose response (AID 624384). It is filed as functional. To be noted: read-out: IC50_Mean.
The target in experiment [2] is T1, Small ubiquitin-related modifier 2. Description: disruption of SUMO2 interaction with SIM peptide – biochemical, fluorescence polarization, uHTS hits, selectivity assay for SUMO1 interaction inhibitor project, dose response (AID 624385). It is filed as functional. To be noted: read-out: IC50_Mean. A general note: In fluorescence polarisation assays a small probe gives low polarisation when free and higher when bound to something large.

Experiment [3] concerns the target T2, Small ubiquitin-related modifier 1 (Homo sapiens, UniProt P63165). Description: SUMO1 protein interaction blockers, potency – biochemical, fluorescence polarization, uHTS hits, dose response (AID 624382). To be noted: read-out: IC50_Mean. It is filed as functional.
Experiment [4] deals with T2, Small ubiquitin-related modifier 1. Description: SUMO1 protein-protein binding blockers, potency – biochemical, FRET, dose response (AID 624383). It is filed as functional. To be noted: read-out: IC50_Mean.
In experiment [5] the target is Steroidogenic factor 1 (Homo sapiens, UniProt Q13285). Description: Counterscreen for inverse agonists of the liver receptor homolog-1 (LRH-1; NR5A2): Luminescence-based cell-based high throughput dose response assay to identify inverse agonists of the Steroidogenic Factor 1 Nuclear Receptor (SF1; NR5A1). It is filed as functional.
Sequence of Steroidogenic factor 1 (Q13285 whole entry): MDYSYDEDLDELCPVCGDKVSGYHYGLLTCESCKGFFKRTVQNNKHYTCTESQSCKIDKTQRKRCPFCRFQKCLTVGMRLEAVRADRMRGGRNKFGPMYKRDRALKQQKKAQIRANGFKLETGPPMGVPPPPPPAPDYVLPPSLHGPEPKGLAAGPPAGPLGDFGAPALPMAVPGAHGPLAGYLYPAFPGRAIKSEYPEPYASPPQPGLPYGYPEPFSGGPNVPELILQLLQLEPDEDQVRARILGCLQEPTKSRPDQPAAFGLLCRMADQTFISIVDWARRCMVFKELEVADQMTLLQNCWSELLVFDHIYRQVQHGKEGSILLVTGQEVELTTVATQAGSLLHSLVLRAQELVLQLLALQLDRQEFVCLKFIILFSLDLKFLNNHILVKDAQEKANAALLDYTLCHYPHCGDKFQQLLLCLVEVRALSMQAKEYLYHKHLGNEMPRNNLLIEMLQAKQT
Experiment [6] concerns the target Nuclear receptor subfamily 5 group A member 2 (Homo sapiens, UniProt O00482). It is filed as functional, cell-based.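 Further: HEK293T cells transfected with LRH-1 and a StAR promoter luciferase reporter; potency for inhibitors that lower LRH-1 driven reporter light.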
Experiment [7] in a line: nonselective StAR promoter luciferase inhibitors – cell-based, luminescence, luciferase reporter, counter-screen for LRH-1 inverse agonist project, dose response (AID 651969). It is filed as functional. (In general: Reporter assays use an easily measured gene product as a stand-in for the process of interest.)
Experiment [8] deals with T3, SUMO-activating enzyme (Homo sapiens, UniProt Q9UBT2). Description: blockers of UBC9-mediated SUMO conjugation – biochemical, AlphaScreen, SUMOylation inhibitor project, confirmation (AID 2018). It is filed as functional. (Bead proximity is the source of the signal in Alpha formats.)
T3 sequence (Q9UBE0 whole entry): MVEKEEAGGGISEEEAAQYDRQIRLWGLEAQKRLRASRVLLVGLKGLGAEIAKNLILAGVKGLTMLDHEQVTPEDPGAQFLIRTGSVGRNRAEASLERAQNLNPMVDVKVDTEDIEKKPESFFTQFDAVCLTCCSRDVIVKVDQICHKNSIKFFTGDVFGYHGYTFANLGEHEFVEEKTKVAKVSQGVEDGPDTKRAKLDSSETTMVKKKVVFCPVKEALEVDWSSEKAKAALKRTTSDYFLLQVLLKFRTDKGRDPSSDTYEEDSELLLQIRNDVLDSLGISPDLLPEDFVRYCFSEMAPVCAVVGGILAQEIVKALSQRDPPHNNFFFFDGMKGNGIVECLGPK
T3 sequence (Q9UBT2 whole entry): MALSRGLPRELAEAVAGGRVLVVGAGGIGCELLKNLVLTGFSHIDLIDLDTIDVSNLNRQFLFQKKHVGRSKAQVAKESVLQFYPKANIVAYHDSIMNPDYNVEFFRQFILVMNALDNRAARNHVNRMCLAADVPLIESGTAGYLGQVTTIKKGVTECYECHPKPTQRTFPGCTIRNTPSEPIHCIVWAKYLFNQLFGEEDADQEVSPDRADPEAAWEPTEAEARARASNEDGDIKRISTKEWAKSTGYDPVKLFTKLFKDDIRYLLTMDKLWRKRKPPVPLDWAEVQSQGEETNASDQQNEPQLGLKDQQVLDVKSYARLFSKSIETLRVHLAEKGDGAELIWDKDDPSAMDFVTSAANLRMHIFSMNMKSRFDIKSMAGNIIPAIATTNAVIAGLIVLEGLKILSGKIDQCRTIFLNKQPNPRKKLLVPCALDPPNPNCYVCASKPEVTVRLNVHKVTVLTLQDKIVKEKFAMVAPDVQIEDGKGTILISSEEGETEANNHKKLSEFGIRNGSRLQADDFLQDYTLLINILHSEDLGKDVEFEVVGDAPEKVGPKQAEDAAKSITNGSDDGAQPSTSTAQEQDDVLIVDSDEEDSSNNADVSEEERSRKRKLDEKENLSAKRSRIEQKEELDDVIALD
Experiment [9] has as its target Tyrosine-protein phosphatase non-receptor type 11 (Homo sapiens, UniProt Q06124). Description: PTPN11 enzyme inhibitors – biochemical, selectivity assay for STEP inhibitor project, dose response (AID 602367). It is filed as functional. To be noted: read-out: IC50_Mean.
For experiment [10], the target named is Dual specificity protein phosphatase 3 (Homo sapiens, UniProt P51452). Description: VHR phosphatase inhibition, dose response, selectivity assay for STEP inhibitor project, biochemical (AID 602374). It is filed as functional. To be noted: read-out: IC50_Mean.
Sequence of Dual specificity protein phosphatase 3 (P51452 whole entry, the tested form may be a part): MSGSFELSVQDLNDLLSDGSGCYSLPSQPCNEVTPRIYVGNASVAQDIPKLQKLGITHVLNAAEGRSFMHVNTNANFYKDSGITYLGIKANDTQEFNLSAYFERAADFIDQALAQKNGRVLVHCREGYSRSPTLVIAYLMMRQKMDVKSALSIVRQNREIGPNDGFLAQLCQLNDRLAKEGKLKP
In experiment [11] the target is T4, Carboxy-terminal domain RNA polymerase II polypeptide A small phosphatase 1 (Homo sapiens, UniProt Q9GZU7).
T4 sequence (Q9GZU7 whole entry): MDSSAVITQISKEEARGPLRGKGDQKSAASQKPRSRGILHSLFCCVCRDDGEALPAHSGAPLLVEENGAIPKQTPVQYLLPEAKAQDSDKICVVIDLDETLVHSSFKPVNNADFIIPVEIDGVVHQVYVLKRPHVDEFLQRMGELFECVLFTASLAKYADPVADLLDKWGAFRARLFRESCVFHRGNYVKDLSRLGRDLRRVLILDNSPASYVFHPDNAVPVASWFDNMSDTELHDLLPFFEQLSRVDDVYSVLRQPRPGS
Description: CTDSP1 inhibitors, concentration-response, biochemical, absorbance readout, ultra-high-throughput screen actives (AID 540297). It is filed as functional.

Experiment [12] concerns the target Polyadenylate-binding protein 1 (Homo sapiens, UniProt P11940). Description: blockers of PABP interaction with poly(A) – biochemical, fluorescence polarization, […] (AID 2014).
The target in experiment [13] is T3, SUMO-activating enzyme. Description: blockers of SAE1/SAE2–UBC9 SUMO transfer – biochemical, HTRF, uHTS, primary screen (AID 2006). It is filed as protein-complex assay.
Experiment [14] has as its target Tyrosine-protein phosphatase non-receptor type 5 (Homo sapiens, UniProt P54829). Description: PTPN5 enzyme inhibition – biochemical, fluorescence intensity, uHTS hits, confirmation (AID 602372). It is filed as functional. To be noted: read-out: IC50_Mean.
Experiment [15] deals with H9c2. Description: cells. It is filed as functional, cell-based. To be noted: Rattus norvegicus, H9c2, Myocardium.
Experiment [16] concerns the target Eukaryotic translation initiation factor 4H (Homo sapiens, UniProt Q15056). Description: eIF4H binding inhibition – biochemical, uHTS, fluorescence polarization, translation initiation inhibitor project, primary screen (AID 2012).
Experiment [17] has as its target Adenosylmethionine-8-amino-7-oxononanoate aminotransferase (Mycobacterium tuberculosis, UniProt P9WQ81). Description: Mycobacterium tuberculosis BioA enzyme inhibitor Measured in Biochemical System Using Plate Reader - 2163-02_Inhibitor_Dose_CherryPick_Activity. It is filed as functional, Mycobacterium tuberculosis UT205.
Experiment [18] deals with Cryptococcus neoformans. Description: PubChem AID 686997. It is filed as functional, organism-based.
Experiment [19] in a line: inhibition of ADAM10 peptide cleavage – biochemical, FRET peptide substrate, recombinant human ADAM10, selectivity assay for ADAM17 exosite inhibitor project, dose response (AID 743259).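 Further: ADAM10 enzyme cleaving a FRET peptide substrate.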
Experiment [20] addresses Disintegrin and metalloproteinase domain-containing protein 17 (Homo sapiens, UniProt P78536). Description: exosite inhibitors of ADAM17, dose response, biochemical (AID 743260).
The test system of experiment [21] is HeLa. Description: viability loss in HeLa cells – cell-based, ATP luminescence, cherry-pick samples, cytotoxicity control, dose response (AID 687004). It is filed as functional.
The target in experiment [22] is Paired box protein Pax-8 (Homo sapiens, UniProt Q06710). Description: PAX8 transcriptional activity inhibition in RMG-I – RMG-I cells, luciferase, cherry-pick, dose response (AID 687027).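 Further: luciferase reporter driven by Pax8 target thyroperoxidase promoter measured by SteadyGlo luminescence.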 It is filed as functional, cell-based.
Sequence of Paired box protein Pax-8 (Q06710 whole entry): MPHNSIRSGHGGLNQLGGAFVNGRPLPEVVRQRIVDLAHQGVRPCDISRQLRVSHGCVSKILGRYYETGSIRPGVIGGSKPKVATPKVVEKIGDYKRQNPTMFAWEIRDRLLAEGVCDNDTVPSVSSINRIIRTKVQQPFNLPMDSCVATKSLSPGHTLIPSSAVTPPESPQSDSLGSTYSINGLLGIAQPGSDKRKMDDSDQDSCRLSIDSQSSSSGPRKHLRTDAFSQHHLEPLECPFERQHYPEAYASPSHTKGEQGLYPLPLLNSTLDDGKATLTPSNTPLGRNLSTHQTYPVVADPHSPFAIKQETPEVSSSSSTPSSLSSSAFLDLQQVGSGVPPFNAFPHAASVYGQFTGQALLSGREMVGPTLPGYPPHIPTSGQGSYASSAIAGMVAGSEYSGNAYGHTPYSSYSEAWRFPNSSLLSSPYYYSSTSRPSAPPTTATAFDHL
Experiment [23] is described as follows: toxicity to human hepatoma HepG2 cells – cell-based, cherry-picked samples, cytotoxicity control, dose response (AID 1159577). It is filed as functional.
Experiment [24] is described as follows: P. falciparum Dd2 growth inhibitors, dose response, SYBR Green, cherry-picked samples (AID 1159567). It is filed as functional, cell-based.
A short description of experiment [25]: OVCAR-3 cell viability loss – plate reader, dry powder samples, PAX8 inhibitor project, dose response (AID 743044). It is filed as functional, cell-based.
Experiment [26] in a line: IGROV1 cell killing – plate reader, dry powder samples, PAX8 inhibitor project, dose response (AID 743043). It is filed as functional, cell-based. To be noted: IGROV-1.
Experiment [27] can be described thus: general cell-killing toxicity readout – plate reader, dry powder samples, cytotoxicity control for PAX8 inhibitor project, dose response (AID 743021). It is filed as functional, cell-based.

Active and inactive are the calls of the source.

T1 sequence (P61956 whole entry): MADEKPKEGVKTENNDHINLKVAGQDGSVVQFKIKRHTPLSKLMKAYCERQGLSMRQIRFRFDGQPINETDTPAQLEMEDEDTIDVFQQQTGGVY
T2 sequence (P63165 whole entry): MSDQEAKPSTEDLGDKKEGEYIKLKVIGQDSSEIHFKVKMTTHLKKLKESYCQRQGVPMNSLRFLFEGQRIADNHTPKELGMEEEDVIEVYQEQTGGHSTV
Sequence of Nuclear receptor subfamily 5 group A member 2 (O00482 whole entry): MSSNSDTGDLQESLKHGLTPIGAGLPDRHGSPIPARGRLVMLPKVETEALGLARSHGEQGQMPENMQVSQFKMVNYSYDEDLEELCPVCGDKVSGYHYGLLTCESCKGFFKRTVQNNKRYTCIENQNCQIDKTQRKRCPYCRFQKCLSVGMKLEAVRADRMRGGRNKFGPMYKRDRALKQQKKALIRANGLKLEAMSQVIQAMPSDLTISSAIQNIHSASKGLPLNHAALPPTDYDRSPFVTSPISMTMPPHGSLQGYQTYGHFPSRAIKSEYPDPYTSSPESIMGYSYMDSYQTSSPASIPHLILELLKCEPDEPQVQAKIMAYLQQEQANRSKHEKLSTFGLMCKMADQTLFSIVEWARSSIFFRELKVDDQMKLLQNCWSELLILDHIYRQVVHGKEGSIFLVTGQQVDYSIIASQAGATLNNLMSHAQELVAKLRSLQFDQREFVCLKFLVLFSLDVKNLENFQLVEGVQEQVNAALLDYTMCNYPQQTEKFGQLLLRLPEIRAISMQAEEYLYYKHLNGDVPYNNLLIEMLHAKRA
Sequence of Polyadenylate-binding protein 1 (P11940 whole entry): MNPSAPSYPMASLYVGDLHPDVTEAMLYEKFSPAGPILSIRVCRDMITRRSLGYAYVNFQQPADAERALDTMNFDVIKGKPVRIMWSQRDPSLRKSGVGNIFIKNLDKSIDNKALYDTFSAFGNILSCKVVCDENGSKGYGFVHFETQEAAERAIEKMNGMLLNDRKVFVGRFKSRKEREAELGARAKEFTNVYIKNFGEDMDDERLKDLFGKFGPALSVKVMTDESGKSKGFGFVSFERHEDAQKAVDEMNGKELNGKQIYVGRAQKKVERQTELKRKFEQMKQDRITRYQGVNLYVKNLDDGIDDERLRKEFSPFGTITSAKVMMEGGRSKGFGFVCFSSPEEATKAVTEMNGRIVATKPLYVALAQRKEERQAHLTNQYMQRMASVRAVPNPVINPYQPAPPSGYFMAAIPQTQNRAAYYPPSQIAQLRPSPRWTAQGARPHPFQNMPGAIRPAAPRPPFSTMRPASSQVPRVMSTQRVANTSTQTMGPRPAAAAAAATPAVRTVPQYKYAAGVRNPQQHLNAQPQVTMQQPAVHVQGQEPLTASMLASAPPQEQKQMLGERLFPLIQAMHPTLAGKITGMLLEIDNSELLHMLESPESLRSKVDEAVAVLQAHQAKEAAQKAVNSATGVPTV
Sequence of Disintegrin and metalloproteinase domain-containing protein 17 (P78536 whole entry, the tested form may be a part): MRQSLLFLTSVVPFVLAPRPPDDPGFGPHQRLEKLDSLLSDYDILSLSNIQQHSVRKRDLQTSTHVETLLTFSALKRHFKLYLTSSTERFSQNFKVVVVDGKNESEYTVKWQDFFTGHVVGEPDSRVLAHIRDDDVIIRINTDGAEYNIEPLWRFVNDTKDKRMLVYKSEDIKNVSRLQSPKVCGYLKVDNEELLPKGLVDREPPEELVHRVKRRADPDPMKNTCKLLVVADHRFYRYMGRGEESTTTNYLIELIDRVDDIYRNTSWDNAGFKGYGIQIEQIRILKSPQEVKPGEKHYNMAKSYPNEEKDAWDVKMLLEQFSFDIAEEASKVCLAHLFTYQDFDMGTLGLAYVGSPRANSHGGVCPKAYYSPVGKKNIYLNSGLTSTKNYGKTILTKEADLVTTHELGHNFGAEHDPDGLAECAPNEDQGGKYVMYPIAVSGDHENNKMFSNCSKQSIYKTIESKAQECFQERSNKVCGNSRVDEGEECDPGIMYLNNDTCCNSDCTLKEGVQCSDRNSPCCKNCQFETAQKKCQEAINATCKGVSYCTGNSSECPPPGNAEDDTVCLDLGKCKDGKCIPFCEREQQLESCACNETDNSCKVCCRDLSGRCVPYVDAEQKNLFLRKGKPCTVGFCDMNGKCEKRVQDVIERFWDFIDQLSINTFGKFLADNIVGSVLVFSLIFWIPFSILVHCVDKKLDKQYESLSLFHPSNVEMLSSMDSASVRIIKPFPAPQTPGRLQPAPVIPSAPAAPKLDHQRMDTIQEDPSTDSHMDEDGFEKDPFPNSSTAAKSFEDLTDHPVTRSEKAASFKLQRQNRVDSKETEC

Consider `COc1ccc(C=NNc2ccc(S(=O)(=O)Nc3ccccc3C(=O)O)cc2[N+](=O)[O-])c(OC)c1`, for which the IC50 in experiment [1] is 6.34 µM (active); in experiment [2], 3.82 µM (active); in experiment [3] it was 5.26 µM (active); in [4], 50.9 µM (inactive).
As to `COc1cc2c(cc1OC)CN(C(=O)CN1C(=O)NC3(CCC(C)CC3)C1=O)CC2` (centres undefined), the values for the IC50 in [5], in experiment [6] and in [7] were 11.3 µM (inactive), 13.4 µM (inactive) and 35.9 µM (inactive), respectively.
Turning to `COc1cc(/C=N/NC(=O)c2ccccc2O)ccc1OCC(=O)Nc1ccccc1`, the IC50 is 16.4 µM (active) in experiment [8]; 1.25 µM (active) in experiment [9]; 4.1 µM (active) in [10]; 5.46 µM (active) in [11]; > 100 µM (inactive) in experiment [12]; 8.71 µM (active) in experiment [13]. For the same compound, the IC50 is 26.2 µM (inactive) in [14], > 79 µM (inactive) in [15] and 15.4 µM (active) in [16].
The term AC50 denotes the concentration at which the activity in the assay is half-maximal. On to `CCNC(=O)[C@@H]1[C@@H](CO)[C@@H]2Cn3c(ccc(-c4cccnc4)c3=O)[C@@H]2N1Cc1ccc2c(c1)OCO2`, for which, in [17], the AC50 was 9.24 µM (active).
With `COC(=O)C1=C(C)N(Cc2ccc(Br)cc2)C(=S)NC1c1ccc(F)cc1` (centres undefined), the AC50 in experiment [18] was 23.2 µM (active); in experiment [18] (Cryptococcus neoformans) it was 40.3 µM (active); in experiment [21], > 52 µM (inactive); in experiment [21] (Homo sapiens), > 47 µM (inactive). Moreover, the IC50 in experiment [19] was 52.8 µM (inactive); in [20], > 69.6 µM (inactive).
Regarding `COc1ccccc1NC(=O)N1CCCCN2[C@H](CO)[C@H](c3ccc(-c4cccc(C)c4)cc3)[C@H]2C1`, the AC50 in [22] was 14.6 µM (active); in experiment [23] it was 9.66 µM (active); in [24] it was 1.44 µM (active); in experiment [25] it was 22.8 µM (active); in experiment [26], 64.1 µM (active); in experiment [27], 2.56 µM (active).

The values above are taken from ChEMBL document CHEMBL1201862, “PubChem BioAssay data set” (2004).
